Experimental data published in PubChem BioAssay (NCI).
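Briefly, cells in 96-well plates were exposed to five compound concentrations for 48 h, and endpoints were estimated by linear interpolation. TGI denotes the concentration required for complete inhibition of growth.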

How the values were obtained:
Test in all cases: NCI-60 cell line screen, 48 h
[1] = system: DLD-1 colon
[2] = system: DMS 114 small cell lung
[3] = system: HOP-18 NSCLC
[4] = system: LXFL 529 NSCLC
[5] = system: M19-MEL melanoma
[6] = system: RXF-631 renal
[7] = system: SNB-78 CNS

Measured: TGI

Nc1nc(N)c2nc(-c3ccco3)cnc2n1
> 100 µM: all assays above
